Measurements published in US11540518B2, “Fungicidal oxadiazoles” (FMC Corporation, priority 2017, dated 2023).

Key:
Type in all cases: in vivo
[1] = test system: Puccinia recondita f. sp. tritici; assay: Test C: wheat leaf rust control on wheat seedlings; conditions: sprayed to run-off on wheat seedlings, inoculated the following day, 100 = 100% disease control, 0 = no control
Description: General protocol for preparing test suspensions for Tests A-C: the test compounds were first dissolved in acetone in an amount equal to 3% of the final volume and then suspended at the desired concentration (in ppm) in acetone and purified water (50/50 mix by volume) containing 250 ppm of the surfactant PEG400 (polyhydric alcohol esters). The resulting test suspensions were then used in Tests A-C. The test solution was sprayed to the point of run-off on wheat seedlings. The following day the seedlings were inoculated with a spore suspension of Puccinia recondita f. sp. tritici (the causal agent of wheat leaf rust) and incubated in a saturated atmosphere at 20° C. for 24 h, and then moved to a growth chamber at 20° C. for 6 days, after which time disease ratings were made. Results for Tests A-C are given in Table A. In the Table, a rating of 100 indicates 100% disease control and a rating of 0 indicates no disease control (relative to the controls). A dash (-) indicates the compound was not tested.

Phakopsora pachyrhizi = assay: Test A: Asian soybean rust control on soybean seedlings; conditions: sprayed to run-off on soybean seedlings, inoculated the following day, 100 = 100% disease control, 0 = no control
Description: General protocol for preparing test suspensions for Tests A-C: the test compounds were first dissolved in acetone in an amount equal to 3% of the final volume and then suspended at the desired concentration (in ppm) in acetone and purified water (50/50 mix by volume) containing 250 ppm of the surfactant PEG400 (polyhydric alcohol esters). The resulting test suspensions were then used in Tests A-C.
The test solution was sprayed to the point of run-off on soybean seedlings. The following day the seedlings were inoculated with a spore suspension of Phakopsora pachyrhizi (the causal agent of Asian soybean rust) and incubated in a saturated atmosphere at 22° C. for 24 h, and then moved to a growth chamber at 22° C. for 8 days, after which time visual disease ratings were made.
Results for Tests A-C are given in Table A. In the Table, a rating of 100 indicates 100% disease control and a rating of 0 indicates no disease control (relative to the controls). A dash (-) indicates the compound was not tested.

Zymoseptoria tritici = assay: Test B: wheat leaf blotch control on wheat seedlings; conditions: sprayed to run-off on wheat seedlings, inoculated the following day, 100 = 100% disease control, 0 = no control
Description: General protocol for preparing test suspensions for Tests A-C: the test compounds were first dissolved in acetone in an amount equal to 3% of the final volume and then suspended at the desired concentration (in ppm) in acetone and purified water (50/50 mix by volume) containing 250 ppm of the surfactant PEG400 (polyhydric alcohol esters). The resulting test suspensions were then used in Tests A-C. The test solution was sprayed to the point of run-off on wheat seedlings. The following day the seedlings were inoculated with a spore suspension of Zymoseptoria tritici (the causal agent of wheat leaf blotch) and incubated in a saturated atmosphere at 24° C. for 48 h, and then moved to a growth chamber at 20° C. for 17 days, after which time disease ratings were made. Results for Tests A-C are given in Table A. In the Table, a rating of 100 indicates 100% disease control and a rating of 0 indicates no disease control (relative to the controls). A dash (-) indicates the compound was not tested.

[2] = 250 ppm (incl. values marked * = tested at 250 ppm)

CN(C)C(=O)OCc1ccc(-c2noc(C(F)(F)F)n2)cc1 [Compound 6]
Test C disease control rating ([1]; 260 ppm): 100%
Test A disease control rating (Phakopsora pachyrhizi; 260 ppm): 100%
Test B disease control rating (Zymoseptoria tritici; 260 ppm): 76%

O=C(NCCCl)OCc1ccc(-c2noc(C(F)(F)F)n2)cc1 [Compound 7]
Test C disease control rating ([1]; 260 ppm): 100%
Test A disease control rating (Phakopsora pachyrhizi; 260 ppm): 100%
Test B disease control rating (Zymoseptoria tritici; 260 ppm): 98%

O=C(OCc1ccc(-c2noc(C(F)(F)F)n2)cc1)n1ccnc1 [Compound 8, 2-[4-[5-(trifluoromethyl)-1,2,4-oxadiazol-3-yl]phenyl]methyl-1H-imidazole-1-carboxylate]
Test C disease control rating ([1]; 255 ppm): 100%
Test A disease control rating (Phakopsora pachyrhizi; 255 ppm): 100%
Test B disease control rating (Zymoseptoria tritici; 255 ppm): 13%

CNC(=O)OCc1ccc(-c2noc(C(F)(F)F)n2)cc1 [Compound 9]
Test C disease control rating ([1]; 260 ppm): 100%
Test A disease control rating (Phakopsora pachyrhizi; 260 ppm): 100%
Test B disease control rating (Zymoseptoria tritici; 260 ppm): 94%

CCCNC(=O)OCc1ccc(-c2noc(C(F)(F)F)n2)cc1 [Compound 10]
Test C disease control rating ([1]; 250 ppm): 100%
Test A disease control rating (Phakopsora pachyrhizi; 250 ppm): 100%
Test B disease control rating (Zymoseptoria tritici; [2]): 97%

COCCNC(=O)OCc1ccc(-c2noc(C(F)(F)F)n2)cc1 [Compound 11]
Test C disease control rating ([1]; 250 ppm): 100%
Test A disease control rating (Phakopsora pachyrhizi; 250 ppm): 100%
Test B disease control rating (Zymoseptoria tritici; [2]): 96%

C#CCNC(=O)OCc1ccc(-c2noc(C(F)(F)F)n2)cc1 [Compound 12]
Test C disease control rating ([1]; 265 ppm): 100%
Test A disease control rating (Phakopsora pachyrhizi; 265 ppm): 100%
Test B disease control rating (Zymoseptoria tritici; 265 ppm): 100%

O=C(NCc1ccccc1)OCc1ccc(-c2noc(C(F)(F)F)n2)cc1 [Compound 13]
Test C disease control rating ([1]; 260 ppm): 100%
Test A disease control rating (Phakopsora pachyrhizi; 260 ppm): 100%
Test B disease control rating (Zymoseptoria tritici; 260 ppm): 36%

CCCCNC(=O)OCc1ccc(-c2noc(C(F)(F)F)n2)cc1 [Compound 15]
Test C disease control rating ([1]; 265 ppm): 100%
Test A disease control rating (Phakopsora pachyrhizi; 265 ppm): 100%
Test B disease control rating (Zymoseptoria tritici; 265 ppm): 92%

CC(C)(C)NC(=O)OCc1ccc(-c2noc(C(F)(F)F)n2)cc1 [Compound 16]
Test C disease control rating ([1]; 255 ppm): 100%
Test A disease control rating (Phakopsora pachyrhizi; 255 ppm): 100%
Test B disease control rating (Zymoseptoria tritici; 255 ppm): 19%

NC(=O)OCc1ccc(-c2noc(C(F)(F)F)n2)cc1 [Compound 17, [4-[5-(trifluoromethyl)-1,2,4-oxadiazol-3-yl]phenyl]methyl carbamate]
pest or weed control at 260 ppm ([1]; Puccinia recondita, 168 h, 260 ppm, read-out: Test C disease control rating): 100%
pest or weed control at 260 ppm (Phakopsora pachyrhizi; Phakopsora pachyrhizi, 216 h, 260 ppm, read-out: Test A disease control rating): 100%
Test B disease control rating (Zymoseptoria tritici; 260 ppm): 92%

CCNC(=O)OCCCn1cc(-c2noc(C(F)(F)F)n2)cn1 [Compound 18]
pest or weed control at 50 ppm ([1]; Puccinia recondita, 168 h, 50 ppm, read-out: Test C disease control rating): 0%
pest or weed control at 50 ppm (Phakopsora pachyrhizi; Phakopsora pachyrhizi, 216 h, 50 ppm, read-out: Test A disease control rating): 38%
Test B disease control rating (Zymoseptoria tritici; [2]): 50* %

C#CCN(C)C(=O)OCc1ccc(-c2noc(C(F)(F)F)n2)cc1 [Compound 32]
Test C disease control rating ([1]; 10 ppm): 68%
Test A disease control rating (Phakopsora pachyrhizi; 10 ppm): 100%
Test B disease control rating (Zymoseptoria tritici; [2]): 0* %

C#CCCNC(=O)OCc1ccc(-c2noc(C(F)(F)F)n2)cc1 [Compound 33]
Test C disease control rating ([1]; 10 ppm): 100%
Test A disease control rating (Phakopsora pachyrhizi; 10 ppm): 100%
Test B disease control rating (Zymoseptoria tritici; [2]): 0* %

CNC(=O)OCc1ccc(-c2noc(C(F)(F)F)n2)s1 [Compound 38]
Test C disease control rating ([1]; 10 ppm): 96%
Test A disease control rating (Phakopsora pachyrhizi; 10 ppm): 94%
Test B disease control rating (Zymoseptoria tritici; [2]): 80* %

CCNC(=O)OCc1ccc(-c2noc(C(F)(F)F)n2)s1 [Compound 39]
Test C disease control rating ([1]; 10 ppm): 95%
Test A disease control rating (Phakopsora pachyrhizi; 10 ppm): 96%
Test B disease control rating (Zymoseptoria tritici; [2]): 93* %

CNC(=O)OCCc1ccc(-c2noc(C(F)(F)F)n2)cc1 [Compound 42]
Test C disease control rating ([1]; 10 ppm): 99%
Test A disease control rating (Phakopsora pachyrhizi; 10 ppm): 100%
Test B disease control rating (Zymoseptoria tritici; 10 ppm): 0%

CCNC(=O)OCCc1ccc(-c2noc(C(F)(F)F)n2)cc1 [Compound 43, 2-[4-[5-(trifluoromethyl)-1,2,4-oxadiazol-3-yl]phenyl]ethyl N-ethylcarbamate]
pest or weed control at 10 ppm ([1]; Puccinia recondita, 168 h, 10 ppm, read-out: Test C disease control rating): 97%
pest or weed control at 10 ppm (Phakopsora pachyrhizi; Phakopsora pachyrhizi, 216 h, 10 ppm, read-out: Test A disease control rating): 100%
Test B disease control rating (Zymoseptoria tritici; [2]): 0* %

CCCNC(=O)OCc1ccc(-c2noc(C(F)(F)F)n2)s1 [Compound 46]
Test C disease control rating ([1]; 10 ppm): 97%
Test A disease control rating (Phakopsora pachyrhizi; 10 ppm): 99%
Test B disease control rating (Zymoseptoria tritici; [2]): 97* %

CC(OC(=O)N(C)C)c1ccc(-c2noc(C(F)(F)F)n2)cc1 (stereo not drawn) [Compound 72]
Test C disease control rating ([1]; 10 ppm): 55%
Test A disease control rating (Phakopsora pachyrhizi; 10 ppm): 100%
Test B disease control rating (Zymoseptoria tritici; [2]): 0* %

CCNC(=O)OC(COC)Cc1ccc(-c2noc(C(F)(F)F)n2)cc1 (stereo not drawn) [Compound 75]
Test C disease control rating ([1]; 10 ppm): 91%
Test A disease control rating (Phakopsora pachyrhizi; 10 ppm): 100%
Test B disease control rating (Zymoseptoria tritici; [2]): 97* %

C#CCNC(=O)OC(C)c1ccc(-c2noc(C(F)(F)F)n2)cc1 (stereo not drawn) [Compound 76]
Test C disease control rating ([1]; 10 ppm): 99%
Test A disease control rating (Phakopsora pachyrhizi; 10 ppm): 100%
Test B disease control rating (Zymoseptoria tritici; [2]): 0* %

CC(OC(=O)NC1CC1)c1ccc(-c2noc(C(F)(F)F)n2)cc1 (stereo not drawn) [Compound 77]
Test C disease control rating ([1]; 10 ppm): 92%
Test A disease control rating (Phakopsora pachyrhizi; 10 ppm): 100%
Test B disease control rating (Zymoseptoria tritici; 10 ppm): 0%

CCOC(=O)NC(=O)OCCc1ccc(-c2noc(C(F)(F)F)n2)cc1 [Compound 78]
Test C disease control rating ([1]; 10 ppm): 91%
Test A disease control rating (Phakopsora pachyrhizi; 10 ppm): 100%
Test B disease control rating (Zymoseptoria tritici; 10 ppm): 95%

CCOC(=O)NC(=O)OCc1ccc(-c2noc(C(F)(F)F)n2)cc1 [Compound 79]
Test C disease control rating ([1]; 10 ppm): 97%
Test A disease control rating (Phakopsora pachyrhizi; 10 ppm): 100%
Test B disease control rating (Zymoseptoria tritici; 10 ppm): 98%

NC(=O)OCc1ccc(-c2noc(C(F)(F)F)n2)cc1F [Compound 85]
Test C disease control rating ([1]; 250 ppm): 100%
Test A disease control rating (Phakopsora pachyrhizi; 250 ppm): 100%
Test B disease control rating (Zymoseptoria tritici; [2]): 98%
